In ChEMBL document CHEMBL3039007, “Structure-based identification of OATP1B1/3 inhibitors” (Mol Pharmacol, 2013):

How the values were obtained:
[1] = molecular target: T1, Solute carrier organic anion transporter family member 1B3 (Homo sapiens, UniProt Q9NPD5); settings: chinese hamster, cho, 10 µM
T1 sequence (Q9NPD5 whole entry): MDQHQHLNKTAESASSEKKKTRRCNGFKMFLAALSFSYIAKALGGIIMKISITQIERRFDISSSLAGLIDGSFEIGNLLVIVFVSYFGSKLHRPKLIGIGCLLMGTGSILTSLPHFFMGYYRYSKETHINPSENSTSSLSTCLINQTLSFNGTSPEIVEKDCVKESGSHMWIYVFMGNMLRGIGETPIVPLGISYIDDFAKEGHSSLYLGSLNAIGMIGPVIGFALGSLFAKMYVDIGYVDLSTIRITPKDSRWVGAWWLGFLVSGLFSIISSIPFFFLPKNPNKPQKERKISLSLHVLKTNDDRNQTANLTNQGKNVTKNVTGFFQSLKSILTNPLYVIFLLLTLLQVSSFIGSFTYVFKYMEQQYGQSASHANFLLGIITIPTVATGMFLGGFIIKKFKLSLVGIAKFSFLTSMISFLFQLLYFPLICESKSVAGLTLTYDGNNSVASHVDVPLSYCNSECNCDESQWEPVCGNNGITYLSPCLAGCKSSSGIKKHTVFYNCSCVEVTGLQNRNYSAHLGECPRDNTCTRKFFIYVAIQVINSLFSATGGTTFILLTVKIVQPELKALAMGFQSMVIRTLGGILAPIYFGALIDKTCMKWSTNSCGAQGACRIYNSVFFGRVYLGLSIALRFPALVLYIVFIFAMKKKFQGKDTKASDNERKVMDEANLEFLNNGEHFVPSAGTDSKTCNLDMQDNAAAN

[2] = molecular target: T2, Solute carrier organic anion transporter family member 1B1 (Homo sapiens, UniProt Q9Y6L6); settings: chinese hamster, cho, 10 µM
T2 sequence (Q9Y6L6 whole entry): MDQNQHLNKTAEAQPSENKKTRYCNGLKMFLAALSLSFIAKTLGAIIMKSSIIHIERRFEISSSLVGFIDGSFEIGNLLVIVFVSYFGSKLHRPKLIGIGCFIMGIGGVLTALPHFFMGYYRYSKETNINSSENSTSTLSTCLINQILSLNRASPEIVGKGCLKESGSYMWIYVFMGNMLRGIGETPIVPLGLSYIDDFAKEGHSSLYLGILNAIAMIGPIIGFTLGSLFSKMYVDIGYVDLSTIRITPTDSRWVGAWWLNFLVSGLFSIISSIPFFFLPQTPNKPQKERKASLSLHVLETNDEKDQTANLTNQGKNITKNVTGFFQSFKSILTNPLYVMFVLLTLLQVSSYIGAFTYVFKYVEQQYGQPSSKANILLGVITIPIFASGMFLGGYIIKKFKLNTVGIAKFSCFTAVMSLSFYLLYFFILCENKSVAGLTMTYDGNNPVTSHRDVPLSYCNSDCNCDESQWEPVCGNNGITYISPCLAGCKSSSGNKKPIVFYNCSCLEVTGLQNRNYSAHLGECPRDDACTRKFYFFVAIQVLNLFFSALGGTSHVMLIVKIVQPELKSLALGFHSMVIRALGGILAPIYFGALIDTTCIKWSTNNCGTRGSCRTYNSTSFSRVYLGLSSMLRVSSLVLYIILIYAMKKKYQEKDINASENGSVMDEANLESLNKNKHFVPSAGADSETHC

With O=C1OCCN1/N=C/c1ccc([N+](=O)[O-])o1 [FURAZOLIDONE] the residual activity [1] was 94.52% and the residual activity [2] was 91.17%.
CC(=O)O[C@H]1CC[C@@]2(C)C(=CC(=O)[C@H]3[C@@H]4CC[C@H]([C@H](C)CCCC(C)C)[C@@]4(C)CC[C@@H]32)C1 [7-OXOCHOLESTERYL ACETATE] was tested, and the residual activity [1] was 99.45% and the residual activity [2] was 97.51%.
CN(C)CCC=C1c2ccccc2C=Cc2ccccc21.Cl [CYCLOBENZAPRINE HYDROCHLORIDE] was tested, and the residual activity [1] was 102.1% and the residual activity [2] was 85.24%.
O=C1NC(=O)C(=O)C(=O)N1 [ALLOXAN] showed a residual activity [1] of 108.5% and a residual activity [2] of 118.2%.
Work on NC[C@H]1CC[C@H](C(=O)O)CC1 [TRANEXAMIC ACID] yielded a residual activity [1] of 102.3% and a residual activity [2] of 81.79%.
With CCN1CCCC(OC(=O)C(c2ccccc2)c2ccccc2)C1.Cl (centres undefined) [PIPERIDOLATE HYDROCHLORIDE] the residual activity [1] was 96% and the residual activity [2] was 65.65%.
COc1cc(C(=O)NCc2ccc(OCCN(C)C)cc2)cc(OC)c1OC.Cl [TRIMETHOBENZAMIDE HYDROCHLORIDE] was tested, and the residual activity [1] was 140.2% and the residual activity [2] was 111%.
COc1ccc(-c2c(O)c3c(OC)c4c(cc3oc2=O)OC(C)(C)CC4)cc1 [DIHYDROROBUSTIC ACID] was tested, and the residual activity [1] was 70.94% and the residual activity [2] was 73.61%.
For CC(COc1ccccc1)N(CCCl)Cc1ccccc1.Cl (centres undefined) [PHENOXYBENZAMINE HYDROCHLORIDE], the residual activity [1] was 88.73% and the residual activity [2] was 101.5%.
With CC(C)=CCC/C(C)=C/CC/C(C)=C/CO [FARNESOL] the residual activity [1] was 89.91% and the residual activity [2] was 89.38%.
For CC(=O)OCC1=C(C(=O)[O-])N2C(=O)[C@@H](NC(=O)CSc3ccncc3)[C@H]2SC1.[Na+] [CEPHAPIRIN SODIUM], the residual activity [1] was 94.33% and the residual activity [2] was 85.65%.
Work on CN1CCN(C2=Nc3ccccc3Oc3ccc(Cl)cc32)CC1.O=C(O)CCC(=O)O [LOXAPINE SUCCINATE] yielded a residual activity [1] of 117.8% and a residual activity [2] of 140.7%.
CC(=O)OCC(=O)[C@H]1CC[C@H]2[C@@H]3CCC4=CC(=O)CC[C@]4(C)[C@H]3CC[C@]12C [DESOXYCORTICOSTERONE ACETATE] showed a residual activity [1] of 88.97%.
O=c1[nH]c2ccccc2n1CCCN1CCC(n2c(=O)[nH]c3cc(Cl)ccc32)CC1 [DOMPERIDONE] showed a residual activity [1] of 111%.
COc1ccc(-c2cc(=O)c3c(OC)c(OC)c(OC)c(OC)c3o2)cc1OC [NOBILETIN] was tested, and the residual activity [1] was 133.3%.
CN1C[C@H](CNC(=O)OCc2ccccc2)C[C@@H]2c3cccc4c3c(cn4C)C[C@H]21 [METERGOLINE] gave a residual activity [1] of 93.79%.
CC(=O)Oc1ccc2c(c1)CC[C@@H]1[C@@H]2CC[C@]2(C)[C@@H](OC(C)=O)CC[C@@H]12 was tested, and the residual activity [1] was 113.7%.
Molecule CC(=O)Oc1c(C)c(C)c2c(c1C)CCC(C)(CCCC(C)CCCC(C)CCCC(C)C)O2 (stereo not drawn) [alpha-TOCHOPHERYL ACETATE] has a residual activity [1] of 93.84%.
Work on CC(=O)Oc1ccc2c(c1)CC[C@@H]1[C@@H]2CC[C@]2(C)[C@@H](O)CC[C@@H]12 [ESTRADIOL ACETATE] yielded a residual activity [1] of 101%.
For OCCN(CCO)c1nc(N2CCCCC2)c2nc(N(CCO)CCO)nc(N3CCCCC3)c2n1 [DIPYRIDAMOLE], the residual activity [1] was 89.24%.
Molecule CC/C(=C(/CC)c1ccc(O)cc1)c1ccc(O)cc1 [DIETHYLSTILBESTROL] has a residual activity [1] of 45.56%.
With CCCCCCCCCCCCC[N+](C)(C)Cc1ccccc1.[Cl-] [BENZALKONIUM CHLORIDE] the residual activity [2] was 78.42%.
In the case of COc1ccc2c(c1)O[C@H]1c3ccc(OC)cc3OC[C@@H]21 [HOMOPTEROCARPIN], the residual activity [1] is reported as 109.3%.
For CC(=O)O[C@H]1C(=O)[C@@]2(C)[C@H]([C@H](OC(=O)c3ccccc3)[C@]3(O)C[C@H](OC(=O)[C@H](O)[C@@H](NC(=O)c4ccccc4)c4ccccc4)C(C)=C1C3(C)C)[C@]1(OC(C)=O)CO[C@@H]1C[C@@H]2O [PACLITAXEL], the residual activity [1] was 52.9%.
For COc1cc(O)c2c(=O)cc(C)oc2c1CC=C(C)C [HETEROPEUCENIN, METHYL ETHER], the residual activity [1] was 110.3%.
In the case of CC1=C(C(=O)O)N2C(=O)[C@@H](NC(=O)[C@H](N)C3=CCC=CC3)[C@H]2SC1 [CEPHRADINE], the residual activity [1] is reported as 100.4%.
Work on CCCCC1C(=O)N(c2ccccc2)N(c2ccccc2)C1=O [PHENYLBUTAZONE] yielded a residual activity [1] of 62.24%.
COc1cc(O)cc(/C=C/c2ccccc2)c1 [PINOSYLVIN METHYL ETHER] gave a residual activity [1] of 91.5%.
C[C@@H]1C[C@H]2[C@@H]3CCC4=CC(=O)C=C[C@]4(C)[C@@]3(F)[C@@H](O)C[C@]2(C)[C@@]1(O)C(=O)CO [DEXAMETHASONE] showed a residual activity [1] of 103.9%.
CC(=O)[C@H]1CC[C@H]2[C@@H]3CC=C4C[C@@H](O)CC[C@]4(C)[C@H]3CC[C@]12C [PREGNENOLONE] was tested, and the residual activity [1] was 110.4%.
For CN(C)CCC=C1c2ccccc2COc2ccccc21.Cl [DOXEPIN HYDROCHLORIDE], the residual activity [1] was 101.8%.
CCOc1ccc(Cc2nccc3cc(OCC)c(OCC)cc23)cc1OCC.Cl [ETHAVERINE HYDROCHLORIDE] gave a residual activity [1] of 156.2%.
For CC(=O)Oc1ccccc1C(=O)O [ASPIRIN], the residual activity [1] was 96.37%.
With COc1ccc(-c2oc3cc(O[C@@H]4O[C@H](CO)[C@@H](O)[C@H](O)[C@H]4O)c(OC)c(O)c3c(=O)c2OC)cc1O [CENTAUREIN] the residual activity [1] was 91.7%.
O=P(O)(O)O.c1ccc(CN(CC2=NCCN2)c2ccccc2)cc1 [ANTAZOLINE PHOSPHATE] was tested, and the residual activity [1] was 97.11%.
CCC(=O)O[C@H]1CC[C@H]2[C@@H]3CCc4cc(O)ccc4[C@H]3CC[C@]12C [ESTRADIOL PROPIONATE] gave a residual activity [1] of 111.9%.
Molecule COc1ccc(-c2cc(=O)c3c(OC)c(OC)c(OC)c(OC)c3o2)cc1 [TANGERETIN] has a residual activity [1] of 175%.
C[C@H]1c2cccc(O)c2C(=O)C2=C(O)[C@]3(O)C(=O)C(C(N)=O)=C(O)[C@@H](N(C)C)[C@@H]3[C@@H](O)[C@@H]21.Cl [DOXYCYCLINE HYDROCHLORIDE] was tested, and the residual activity [1] was 106%.
Work on COc1ccc(C(=O)O[C@@H]2CC[C@@]3(C)[C@@H]4CC[C@H]5[C@]6(O)C[C@H](O)[C@@]7(O)[C@@H](CN8C[C@@H](C)CC[C@H]8[C@@]7(C)O)[C@]6(O)C[C@@]53O[C@@]42O)cc1OC.O=S(=O)(O)O yielded a residual activity [1] of 91.85%.
With CC1(C)OC(=O)NC1=O [DIMETHADIONE] the residual activity [1] was 109.1%.
Molecule O=C(O)CCc1nc(-c2ccccc2)c(-c2ccccc2)o1 [OXAPROZIN] has a residual activity [1] of 71.47%.
CN(C)CCOC(C)(c1ccccc1)c1ccccn1.O=C(O)CCC(=O)O (centres undefined) [DOXYLAMINE SUCCINATE] gave a residual activity [1] of 108.8%.
For CN1[C@@H]2CC[C@H]1C[C@@H](OC(=O)[C@H](CO)c1ccccc1)C2 [HYOSCYAMINE], the residual activity [2] was 97.76%.
For COC1=C[C@@H](C)[C@@H]2C[C@H]3OC(=O)C[C@H]4C(C)=C(OC)C(=O)[C@H]([C@@]2(C)C1=O)[C@@]34C [QUASSIN], the residual activity [1] was 100.5%.
In the case of COc1ccc(/C=C/c2cc(O)cc(O)c2)cc1 [RESVERATROL 4'-METHYL ETHER], the residual activity [1] is reported as 135%.
With Clc1ccccc1C(c1ccccc1)(c1ccccc1)n1ccnc1 [CLOTRIMAZOLE] the residual activity [1] was 105.9%.
CC(=O)O[C@]1(C(C)=O)CC[C@H]2[C@@H]3C=C(Cl)C4=CC(=O)[C@@H]5C[C@@H]5[C@]4(C)[C@H]3CC[C@@]21C [CYPROTERONE ACETATE] was tested, and the residual activity [1] was 103.2%.
CN[C@@H](C)[C@H](O)c1ccccc1.Cl [EPHEDRINE HYDROCHLORIDE] showed a residual activity [1] of 105.1%.
O=C(CCCN1CC=C(n2c(=O)[nH]c3ccccc32)CC1)c1ccc(F)cc1 [DROPERIDOL] was tested, and the residual activity [1] was 147.6%.
For CCOC(=O)C1=C(C)NC(C)=C(C(=O)OC)C1c1cccc([N+](=O)[O-])c1 (centres undefined) [NITRENDIPINE], the residual activity [1] was 77.72%.
CCCCC(CC)CN=C(N)N=C(N)NCCCCCCNC(N)=NC(N)=NCC(CC)CCCC.Cl (centres undefined) [ALEXIDINE HYDROCHLORIDE] was tested, and the residual activity [2] was 69.95%.
Work on C=C1CC[C@H](O)C/C1=C/C=C1\CCC[C@]2(C)[C@@H]([C@H](C)/C=C/[C@H](C)C(C)C)CC[C@@H]12 [ERGOCALCIFEROL] yielded a residual activity [1] of 28.81%.
